Data taken from US20130023504A1, “Modulation of Prostaglandin/Cyclooxygenase Metabolic Pathways” (HUNTER-FLEMING LIMITED, priority 2006, published 2013).

Test system: rat sensory neurones
Experiment: Neurite growth of sensory neurones in primary culture (anti β-Tubulin, In Cell Analyzer)
Format: cell-based
Method: Rat sensory neurones were prepared according to the method described by Hall et al. 1997 (Hall A K, Ai X, Hickman G E, MacPhedran S E, Nduaguba C O, Robertson C P. The generation of neuronal heterogeneity in a rat sensory ganglion. J. Neurosci. 1997 Apr. 15; 17(8):2775-84). Briefly, female rats (15 days gestation) were killed by cervical dislocation (Rats Wistar; Janvier, Le Genest-St-Isle, France) and the foetuses removed from the uterus. Their spinal cords with the dorsal root ganglia (DRG) were removed and placed in ice-cold medium of Leibovitz (L15, Fisher 11415-049) containing Penicillin 50 Ul/ml-Streptomycin 50 pg/ml (PS, 1%) and bovine serum albuminutes (BSA 1%, Sigma A6003). The DRG were recovered and dissociated by trypsinisation for 20 minutes at 37° C. (trypsin EDTA 10×, 10%, Fisher 15400054) diluted in PBS without calcium and magnesium (Fisher 2007-03). The reaction was stopped by addition of Dulbecco modified Eagle medium (DMEM, Fisher 21969-035) containing DNase I grade II (0.1 mg/ml Roche diagnostic 104159) and foetal bovine serum (FBS 10%, Fisher 10270-098). The cell suspension was triturated with a 10 ml pipette and centrifuged at 350×g for 10 minutes at room temperature. The pellet of dissociated cells was then resuspended in defined culture medium.
Viable cells were counted in a Neubauer cytometer using the trypan blue exclusion test (Sigma) and seeded at a density of 25 000 cells/well in 96 well-plates (Nunc). Wells were pre-coated with poly-L-lysine (10 μg/ml, Sigma P2636) in ultra pure sterile water (Merck Eurolab 60759.01).
Cells were allowed to adhere for 2 hours and maintained in a humidified incubator at 37° C. in 5% CO2/95% air atmosphere.
The culture medium was changed into a defined culture medium after a 12 hours incubation period following the conditions described below:
NGF 50 ng/ml and 10 ng/ml (in 0.1% DMSO)
After 6 hours, 12 hours and 24 hours of incubation with 7β-OH EPIA, cells were fixed for 5 minutes in an ethanol/acetic acid solution (95%/5%) at −20° C. and rinsed 3 times in PBS.
Motor neurones and sensory neurones were labelled by monoclonal anti β-Tubulin antibody (Sigma T8660) diluted at 1:400 in incubation solution (PBS with 5% of FCS and 0.1% of saponin, Sigma S-7900). This antibody specifically labels neurone cell bodies and neurites.
After 2 hours of incubation, the cells were washed in PBS and incubated with Alexa Fluor 488 goat anti mouse IgG (Molecular Probes A11001) diluted at 1:300 in incubation solution to reveal the 8-Tubulin III antibodies.
Analysis of the total length of neurones labelled with anti β-Tubulin antibodies (neurones) were carried out using In Cell Analyzer 1000 3.2.Workstation software.
The results were expressed in percentage compared to the vehicle. Comparison of groups was carried out using the unpaired T test.

SMILES: CC12CCC3C(C1CCC2=O)[C@@H](O)C[C@H]1C[C@@H](O)CCC31C (stereo partly drawn) [Compound 7β-OH-EPIA, 7β-hydroxy-EPIAndrosterone]
- Neurites length per field, % Vehicle (10^−4 M, 6 hours): 101%
- Neurites length per field, Mean (10^−4 M, 6 hours): 103.2 μm
- Neurites length per field, % Vehicle (10^−4 M, 12 hours): 97%
- Neurites length per field, Mean (10^−4 M, 12 hours): 290.3 μm
- Neurites length per field, % Vehicle (10^−4 M, 24 hours): 104%
- Neurites length per field, Mean (10^−4 M, 24 hours): 228.6 μm
- Neurites length per field, % Vehicle (10^−5 M, 6 hours): 112%
- Neurites length per field, Mean (10^−5 M, 6 hours): 114.8 μm
- Neurites length per field, % Vehicle (10^−5 M, 12 hours): 108%
- Neurites length per field, Mean (10^−5 M, 12 hours): 321.0 μm
- Neurites length per field, % Vehicle (10^−5 M, 24 hours): 111%
- Neurites length per field, Mean (10^−5 M, 24 hours): 244.8 μm
- Neurites length per field, % Vehicle (10^−6 M, 6 hours): 96%
- Neurites length per field, Mean (10^−6 M, 6 hours): 97.7 μm
- Neurites length per field, % Vehicle (10^−6 M, 12 hours): 96%
- Neurites length per field, Mean (10^−6 M, 12 hours): 287.0 μm
- Neurites length per field, % Vehicle (10^−6 M, 24 hours): 86%
- Neurites length per field, Mean (10^−6 M, 24 hours): 189.9 μm
- Neurites length per field, % Vehicle (10^−7 M, 6 hours): 149%
- Neurites length per field, Mean (10^−7 M, 6 hours): 151.8 μm
- Neurites length per field, % Vehicle (10^−7 M, 6 hours, listed as 7β-OH EPIA): 171%
- Neurites length per field, % Vehicle (10^−7 M, 12 hours): 134%
- Neurites length per field, Mean (10^−7 M, 12 hours): 398.4 μm
- Neurites length per field, % Vehicle (10^−7 M, 24 hours): 173%
- Neurites length per field, Mean (10^−7 M, 24 hours): 380.8 μm
- Neurites length per field, % Vehicle (10^−8 M, 6 hours): 176%
- Neurites length per field, Mean (10^−8 M, 6 hours): 179.3 μm
- Neurites length per field, % Vehicle (10^−8 M, 12 hours): 123%
- Neurites length per field, Mean (10^−8 M, 12 hours): 368.3 μm
- Neurites length per field, % Vehicle (10^−8 M, 24 hours): 174%
- Neurites length per field, Mean (10^−8 M, 24 hours): 384.3 μm
- Neurites length per field, % Vehicle (10^−9 M, 6 hours): 171%
- Neurites length per field, Mean (10^−9 M, 6 hours): 174.2 μm
- Neurites length per field, % Vehicle (10^−9 M, 6 hours, listed as 7β-OH EPIA): 149%
- Neurites length per field, % Vehicle (10^−9 M, 12 hours): 145%
- Neurites length per field, Mean (10^−9 M, 12 hours): 431.8 μm
- Neurites length per field, % Vehicle (10^−9 M, 24 hours): 147%
- Neurites length per field, Mean (10^−9 M, 24 hours): 324.9 μm
